Like-named read-outs stand apart in the source and are kept apart here.
What was measured:
[1] = format: in vivo; conditions: for Weight: NPC-affected cat S222, NB-DNJ treated, measured within 10 days before neuronal assessment
GM2 ganglioside = assay: Immunocytochemistry with anti-GM2 ganglioside antibodies in cat brain; format: in vivo
Description: The following sections highlight the histologic and lipid analysis findings for the study animals. As with humans, there is an increased expression of gangliosides in feline NPC neurons. […] There is a corresponding increase in neuronal ganglioside level and histology changes seen in NPC humans.
Immunocytochemical studies with anti-GM2 ganglioside antibodies were used to probe for ganglioside expression in treated vs. untreated cats in a qualitative manner.

alpha-glucosidase 1 = target: T1, alpha-glucosidase 1 (Homo sapiens, UniProt Q13724); conditions: cited from earlier work
T1 sequence (Q13724 1-837): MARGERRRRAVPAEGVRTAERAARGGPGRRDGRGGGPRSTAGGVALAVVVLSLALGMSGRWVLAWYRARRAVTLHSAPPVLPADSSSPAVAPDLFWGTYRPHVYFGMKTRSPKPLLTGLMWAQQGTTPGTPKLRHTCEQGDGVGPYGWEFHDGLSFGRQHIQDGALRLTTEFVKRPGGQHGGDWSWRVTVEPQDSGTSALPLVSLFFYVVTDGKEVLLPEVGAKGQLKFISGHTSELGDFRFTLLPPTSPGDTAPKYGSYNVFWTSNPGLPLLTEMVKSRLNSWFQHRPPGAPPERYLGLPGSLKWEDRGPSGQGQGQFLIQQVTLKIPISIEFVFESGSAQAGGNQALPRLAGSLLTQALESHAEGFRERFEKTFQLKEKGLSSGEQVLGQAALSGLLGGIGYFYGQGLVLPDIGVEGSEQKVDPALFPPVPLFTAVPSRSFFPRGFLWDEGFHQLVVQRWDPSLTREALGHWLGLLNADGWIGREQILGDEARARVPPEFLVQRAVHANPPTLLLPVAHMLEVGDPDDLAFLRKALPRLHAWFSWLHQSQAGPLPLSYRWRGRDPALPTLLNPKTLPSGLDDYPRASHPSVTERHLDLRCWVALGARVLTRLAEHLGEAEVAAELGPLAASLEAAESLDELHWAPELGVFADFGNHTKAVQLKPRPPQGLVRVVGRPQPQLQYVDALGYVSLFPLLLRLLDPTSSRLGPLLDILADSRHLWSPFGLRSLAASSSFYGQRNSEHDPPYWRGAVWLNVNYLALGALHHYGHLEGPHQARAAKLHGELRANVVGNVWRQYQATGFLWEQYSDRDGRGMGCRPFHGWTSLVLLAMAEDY

[2] = system: glucosylceramide synthesis; conditions: cells treated with NB-DNJ; cited from earlier work
[3] = NPC-affected cat S222, 100 mg/kg/day

CCCCN1C[C@H](O)[C@@H](O)[C@H](O)[C@H]1CO [NB-DNJ, N-butyldeoxynojirimycin]
Fur colour [1, 3]: light-coloured fur effect
Tolerability [1, 3]: reasonably well handled
Appetite ([1]; NPC-affected cat S222, 100 mg/kg/day, relative to normal and NPC-affected cats): significantly reduced
Weight ([1]; Week 6.5): 522 gms
Weight ([1]; Week 12.5): 965 gms
Weight ([1]; Week 16): 1265 gms
Weight ([1]; Week 18.5): 1390 gms
Weight ([1]; Week 20.5): 1453 gms
Weight ([1]; Week 22.5): 1469 gms
Weight ([1]; Week 24.5): 1495 gms
Weight ([1]; Week 26.5): 1525 gms
Weight ([1]; Week 29): 1565 gms
Weight ([1]; Week 30.5): 1590 gms
Weight ([1]; Week 32.5): 1677 gms
Hepatotoxicity ([1]; NPC-affected cat S222, starting dose 1200 mg/kg/day): acutely hepatotoxic
Hepatotoxicity ([1]; cats, 150 mg/kg/day): hepatotoxic
Hepatotoxicity ([1]; cats, 1200 mg/kg/day): acutely hepatotoxic
Appetite and overall responsiveness ([1]; normal cat S161, 100 mg/kg/day): decreased
Hair colour ([1]; normal cat S218, 100 mg/kg/day): markedly more beige
Serum levels of liver enzymes ([1]; normal cat S218, 1200 mg/kg/day): dramatic elevation
Appetite ([1]; normal cat S218, eventual dosage 100 mg/kg/day): significantly less than that of a normal cat
Hepatotoxicity ([1]; normal cat S218, starting dose 1200 mg/kg/day): acutely hepatotoxic
Weight at the end of the treatment period ([1]; normal female cat S218, 100 mg/kg/day, normal female cat expected about 4 kg): about 2.4 kg
GM2 immunoreactivity in granular cell layer of cerebellum (GM2 ganglioside; NPC cat treated with NB-DNJ): largely devoid of GM2 immunoreactivity
GM2 labeling in Purkinje cells (GM2 ganglioside; NPC cat treated with NB-DNJ): qualitatively less GM2 labeling
GM2 labeling in the cerebral cortex (GM2 ganglioside; NPC cat treated with NB-DNJ, compared to untreated NPC cat): qualitatively less severe
Accumulation of glucosylceramide-containing glycolipids (e.g. GM2) (GM2 ganglioside; NPC cats): qualitatively decreases
Inhibition of alpha-glucosidase 1 (alpha-glucosidase 1): potent inhibitor
Glucosylceramide levels [2]: markedly reduced

Reference: patent US6683076B2, “Methods for therapeutic use of glucosylceramide synthesis inhibitors and composition thereof” (Oxford Glyco-Sciences (UK) Ltd, priority 2000, dated 2004)
